Measured values reported in ChEMBL document CHEMBL4706528, “The design, synthesis and anti-tumor mechanism study of new androgen receptor degrader” (Eur J Med Chem, 2020).

Tests used:
Type in all cases: functional
LNCaP [1] = test: Induction of apoptosis in human LNCaP cells assessed as viable cells level at 2 micromol/L incubated for 24 hrs by Annexin V/PI staining staining based flow cytometry (reference value: 96.3%); details: dose 2 µmol/L, at 2 µM
LNCaP [2] = test: Induction of cell cycle arrest in human LNCaP cells assessed as accumulation at G2 phase at 10 micromol/L after 24 hrs by RNase A/PI-staining based flow cytometric analysis (reference value: 20.87%); details: dose 10 µmol/L, at 10 µM
LNCaP [3] = test: Induction of apoptosis in human LNCaP cells assessed as necrotic cells level at 10 micromol/L incubated for 24 hrs by Annexin V/PI staining staining based flow cytometry (reference value: 0.694%); details: dose 10 µmol/L, at 10 µM
LNCaP [4] = test: Induction of apoptosis in human LNCaP cells assessed as early apoptotic cells level at 10 micromol/L incubated for 24 hrs by Annexin V/PI staining staining based flow cytometry (reference value: 2.09%); details: dose 10 µmol/L, at 10 µM

`CC1(C)C(=O)N(c2ccc(C#N)c(C(F)(F)F)c2)C(=S)N1CCCCCn1cc(COCCOCCOC(=O)CC23CC4CC(CC(C4)C2)C3)nn1` was tested, and the Activity (LNCaP [1]) was 96.1%, the Activity (LNCaP [2]) was 6.4% and the Activity (LNCaP [3]) was 0.024%. For the same compound, the Activity (LNCaP [4]) was 14.4%.
